Experimental data: patent US8846947B2, “Benzimidazoles and related analogs as sirtuin modulators” (GlaxoSmithKline LLC, priority 2008, dated 2014)

These molecules were tested against T1, SIRT1 (Homo sapiens, UniProt Q96EB6) (assay: Mass spectrometry based SIRT1 deacetylase activation assay (acetylated p53-derived peptide substrate)). Conditions: 0.5 μM peptide substrate, 120 μM βNAD+, 10 nM SIRT1, 25 minutes at 25° C.
T1 sequence (Q96EB6 1-747): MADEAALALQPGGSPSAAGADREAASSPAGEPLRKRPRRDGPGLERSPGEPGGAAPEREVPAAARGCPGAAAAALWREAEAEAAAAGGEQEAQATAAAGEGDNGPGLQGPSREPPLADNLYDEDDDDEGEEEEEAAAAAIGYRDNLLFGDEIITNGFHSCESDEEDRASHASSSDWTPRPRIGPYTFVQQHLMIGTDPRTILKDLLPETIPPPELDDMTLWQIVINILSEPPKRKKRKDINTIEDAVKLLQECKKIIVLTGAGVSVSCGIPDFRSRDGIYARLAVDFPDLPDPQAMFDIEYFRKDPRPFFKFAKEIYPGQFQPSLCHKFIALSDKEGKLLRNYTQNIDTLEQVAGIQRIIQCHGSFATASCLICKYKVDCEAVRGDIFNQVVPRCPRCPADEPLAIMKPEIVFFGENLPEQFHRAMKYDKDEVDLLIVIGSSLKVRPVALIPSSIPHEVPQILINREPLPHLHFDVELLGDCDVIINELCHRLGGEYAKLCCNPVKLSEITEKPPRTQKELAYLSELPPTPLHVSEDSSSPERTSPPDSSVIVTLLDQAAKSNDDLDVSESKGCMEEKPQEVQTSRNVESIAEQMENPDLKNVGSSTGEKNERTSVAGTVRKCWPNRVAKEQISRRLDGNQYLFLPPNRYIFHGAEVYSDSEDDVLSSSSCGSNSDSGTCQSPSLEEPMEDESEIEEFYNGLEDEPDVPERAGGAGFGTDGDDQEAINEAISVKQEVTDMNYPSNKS
Format: biochemical
For O=C(Nc1cccnn1)c1cc(N2CCOCC2)cc2[nH]c(-c3ccc(F)cc3C(F)(F)F)nc12 [Compound 692], the EC1.5 was “A (EC1.5<1.0 uM)” and the “Fold Act. (percent maximum fold activation)” value was “A (Fold activation >200%)”.
In the case of O=C(Nc1nccs1)c1cncc2[nH]c(-c3ccc(F)cc3C(F)(F)F)nc12 [Compound 693, 2-(4-fluoro-2-trifluoromethyl-phenyl)-3H-imidazo[4,5-c]pyridine-7-carboxylic acid thiazol-2-ylamide], the EC1.5 is reported as “B (EC1.5 1-25 uM)” and the “Fold Act. (percent maximum fold activation)” value is reported as “B (Fold Activation <200%)”.
With O=C(Nc1ccccn1)c1cncc2[nH]c(-c3ccc(F)cc3C(F)(F)F)nc12 [Compound 694] the EC1.5 was “B (EC1.5 1-25 uM)” and the “Fold Act. (percent maximum fold activation)” value was “B (Fold Activation <200%)”.
In the case of O=C(Nc1cccnc1)c1cncc2[nH]c(-c3ccc(F)cc3C(F)(F)F)nc12 [Compound 695], the EC1.5 is reported as “A (EC1.5<1.0 uM)” and the “Fold Act. (percent maximum fold activation)” value is reported as “A (Fold activation >200%)”.
O=C(Nc1cccnn1)c1cncc2[nH]c(-c3ccc(F)cc3C(F)(F)F)nc12 [Compound 696] was tested, and the EC1.5 was “B (EC1.5 1-25 uM)” and the “Fold Act. (percent maximum fold activation)” value was “A (Fold activation >200%)”.
With Cc1cnc(NC(=O)c2cncc3[nH]c(-c4ccc(F)cc4C(F)(F)F)nc23)s1 [Compound 697] the EC1.5 was “A (EC1.5<1.0 uM)” and the “Fold Act. (percent maximum fold activation)” value was “A (Fold activation >200%)”.
With O=C(Nc1cccc(OC[C@H](O)CO)c1)c1cccc2[nH]c(-c3ccc(Cl)cc3C(F)F)nc12 [Compound 698] the EC1.5 was “A (EC1.5<1.0 uM)” and the “Fold Act. (percent maximum fold activation)” value was “A (Fold activation >200%)”.
With O=C(Nc1cccc(OC[C@@H](O)CO)c1)c1cccc2[nH]c(-c3ccc(Cl)cc3C(F)F)nc12 [Compound 699] the EC1.5 was “A (EC1.5<1.0 uM)” and the “Fold Act. (percent maximum fold activation)” value was “A (Fold activation >200%)”.
For O=C(Nc1cccc(OC[C@@H](O)CO)c1)c1cccc2[nH]c(-c3ccccc3C(F)F)nc12 [Compound 700], the EC1.5 was “A (EC1.5<1.0 uM)” and the “Fold Act. (percent maximum fold activation)” value was “A (Fold activation >200%)”.
In the case of O=C(Nc1nc(CN2CCOCC2)cs1)c1cccc2[nH]c(-c3cc(F)ccc3C(F)(F)F)nc12 [Compound 701], the EC1.5 is reported as “A (EC1.5<1.0 uM)” and the “Fold Act. (percent maximum fold activation)” value is reported as “A (Fold activation >200%)”.
In the case of O=C(Nc1nccs1)c1cccc2[nH]c(-c3cnccc3C(F)(F)F)nc12 [Compound 702], the EC1.5 is reported as “A (EC1.5<1.0 uM)” and the “Fold Act. (percent maximum fold activation)” value is reported as “A (Fold activation >200%)”.
For Cc1cnc(NC(=O)c2cccc3[nH]c(-c4cnccc4C(F)(F)F)nc23)s1 [Compound 703, N-(5-methylthiazol-2-yl)-2-(4-(trifluoromethyl)pyridin-3-yl)-1H-benzo[d]imidazole-4-carboxamide], the EC1.5 was “A (EC1.5<1.0 uM)” and the “Fold Act. (percent maximum fold activation)” value was “A (Fold activation >200%)”.
O=C(Nc1ccccn1)c1cccc2[nH]c(-c3cnccc3C(F)(F)F)nc12 [Compound 704] was tested, and the EC1.5 was “A (EC1.5<1.0 uM)” and the “Fold Act. (percent maximum fold activation)” value was “A (Fold activation >200%)”.
For O=C(Nc1cccc(OCC(O)CO)c1)c1cccc2[nH]c(-c3ccc(F)cc3C(F)(F)F)nc12 (stereo not drawn) [Compound 705], the EC1.5 was “A (EC1.5<1.0 uM)” and the “Fold Act. (percent maximum fold activation)” value was “A (Fold activation >200%)”.
CC1(C)CN(c2ccc(-c3nc4c(C(=O)Nc5nccs5)cccc4[nH]3)c(C(F)(F)F)c2)CCO1 [Compound 706] was tested, and the EC1.5 was “A (EC1.5<1.0 uM)” and the “Fold Act. (percent maximum fold activation)” value was “A (Fold activation >200%)”.
For CC1(C)CN(c2ccc(-c3nc4c(C(=O)Nc5ccccn5)cccc4[nH]3)c(C(F)(F)F)c2)CCO1 [Compound 707], the EC1.5 was “A (EC1.5<1.0 uM)” and the “Fold Act. (percent maximum fold activation)” value was “A (Fold activation >200%)”.
In the case of CC1(C)CN(c2ccc(C(F)(F)F)c(-c3nc4c(C(=O)Nc5nccs5)cccc4[nH]3)c2)CCO1 [Compound 708], the EC1.5 is reported as “A (EC1.5<1.0 uM)” and the “Fold Act. (percent maximum fold activation)” value is reported as “A (Fold activation >200%)”.
CC1(C)CN(c2ccc(C(F)(F)F)c(-c3nc4c(C(=O)Nc5ccccn5)cccc4[nH]3)c2)CCO1 [Compound 709] was tested, and the EC1.5 was “A (EC1.5<1.0 uM)” and the “Fold Act. (percent maximum fold activation)” value was “A (Fold activation >200%)”.
